Patent publication US20260109708A1, “COMPOUNDS AND COMPOSITIONS USEFUL AS DEGRADERS OF MK2 KINASE” (Celgene Corporation, priority 2023, published 2026)

Target: T1, p38a activated, mitogen-activated protein kinase-activated protein kinase 2 (MAPKAP-K2 or MK2) enzyme (Homo sapiens, UniProt P49137)
T1 construct: purchased Invitrogen PV3317
Test: MK2 OMNIA biochemical assay (AssayQuant continuous-read kinase assay)
Conditions: [MK-2]=0.05 nM, [ATP]=100 μM, [AQT0425]=10 μM
From the text: Example 56.2. Mitogen-Activated Protein Kinase-Activated Protein Kinase 2 AssayQuant Technologies® Assay for Compound Potency Assessment (MK2 OMNIA Biochemical Assay)
The protocol below describes a continuous-read kinase assay optimized to measure potency of compounds against p38a activated, mitogen-activated protein kinase-activated protein kinase 2 (MAPKAP-K2 or MK2) enzyme.
A 1.25× stock solution of MK2 (PV3317, from Invitrogen) and a 5× stock solution of ATP and Sox conjugated peptide substrate, AQT0425 (CSKS-AQT0425B, from AssayQuant Technologies), were prepared in 1× kinase reaction buffer consisting of 50 mM HEPES, pH 7.5, 0.01% Brij-35, 0.55 mM EGTA, 10 mM MgCl2 and 1 mM DTT.
10 μL of the ATP and substrate solution mix was added to a Coming (3574) 384-well, white, non-binding surface microtiter plate containing 0.5 μL of serially diluted test compounds prepared in DMSO. The reactions were started with the addition of 40 μL of the enzyme solution and monitored every 71 seconds for 240 min at kex 360/λem 485 in a Synergy H4 plate reader from BioTek at room temperature.
The initial linear portions of the net progress curves were fit according to a linear equation to yield the slope and percentage of inhibition (% inhibition) at each compound concentration. The net progress curves obtained during the entirety of reactions were also fit according to an ascending single-exponential equation (Eq. 1) to yield Vobs values at each compound concentration. Plots of % Inhibition versus degrader concentrations were fit according to a dose-response equation (Eq. 2) to generate IC50 and Hill slope values while plots of Vobs versus degrader concentration were fit according to Equation 3 (Eq. 3) to generate apparent Kinact values using the GraphPad PRISM software.
where F is the fluorescence intensity from the plate reader, V0 is a constant reflecting the relationship between the instrument readout and product concentration, t is time, e is Euler's number, and Vobs is the observed inactivation rate constant.
where % Inhibition is percentage of inhibition, IC50 is half maximal inhibitory concentration, [I] is the degraders concentration, and n is the Hill slope.
where kobs is the observed inactivation rate constant, Kinact is the apparent inactivation rate constant, K1 is the apparent inhibition constant, and [I] is the degrader concentration.

T1 sequence (P49137 whole entry): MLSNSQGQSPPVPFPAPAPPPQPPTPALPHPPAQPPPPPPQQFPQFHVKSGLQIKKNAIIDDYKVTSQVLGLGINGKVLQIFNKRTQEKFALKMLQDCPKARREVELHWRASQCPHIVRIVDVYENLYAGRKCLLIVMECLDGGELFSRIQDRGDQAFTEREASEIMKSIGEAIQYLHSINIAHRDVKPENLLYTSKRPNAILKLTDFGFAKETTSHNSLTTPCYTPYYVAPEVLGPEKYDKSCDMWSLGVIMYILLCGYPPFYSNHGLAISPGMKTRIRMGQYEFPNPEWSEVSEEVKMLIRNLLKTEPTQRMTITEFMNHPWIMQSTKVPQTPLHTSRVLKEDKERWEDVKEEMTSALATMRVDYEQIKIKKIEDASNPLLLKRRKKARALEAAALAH

Compound	IC50 [nM]
C[C@@H]1COc2c(sc3ccc4nc(-c5ccc(C6CN(CCN7CCN(c8ccc(C9CCC(=O)NC9=O)cc8)CC7)C6)cc5)ccc4c23)C(=O)N1 (stereo partly drawn) [Ex 33, 3-(4-(4-(2-(3-(4-((R)-10-Methyl-8-oxo-8,9,10,11-tetrahydro-[1,4]oxazepino[7′,6′:4,5]thieno[3,2-f]quinolin-3-yl)phenyl)azetidin-1-yl)ethyl)piperazin-1-yl)phenyl)piperidine-2,6-dione]	< 150
C[C@@H]1CNc2c(sc3ccc4nc(-c5ccc(C6CCN(CCN7CCN(c8ccc(C9CCC(=O)NC9=O)cc8)CC7)CC6)nc5)ccc4c23)C(=O)N1 (stereo partly drawn) [Ex 34, 3-(4-(4-(2-(4-(5-((R)-10-Methyl-8-oxo-9,10,11,12-tetrahydro-8H-[1,4]diazepino[5′,6′:4,5]thieno[3,2-f]quinolin-3-yl)pyridin-2-yl)piperidin-1-yl)ethyl)piperazin-1-yl)phenyl)piperidine-2,6-dione]	151 to 500
C[C@@H]1CNc2c(sc3ccc4nc(-c5ccc(C6CCN(CCN7CCN(c8ccc(C9CCC(=O)NC9=O)cc8)CC7)CC6)cn5)ccc4c23)C(=O)N1 (stereo partly drawn) [Ex 35, 3-(4-(4-(2-(4-(6-((R)-10-Methyl-8-oxo-9,10,11,12-tetrahydro-8H-[1,4]diazepino[5′,6′:4,5]thieno[3,2-f]quinolin-3-yl)pyridin-3-yl)piperidin-1-yl)ethyl)piperazin-1-yl)phenyl)piperidine-2,6-dione]	< 150

The next lines start with the values.

IC50 [nM]	Compound
151 to 500	C[C@@H]1CNc2c(sc3ccc4nc(-c5cnc(C6CCN(CCN7CCN(c8ccc(C9CCC(=O)NC9=O)cc8)CC7)CC6)nc5)ccc4c23)C(=O)N1 (stereo partly drawn) [Ex 36, 3-(4-(4-(2-(4-(5-((R)-10-Methyl-8-oxo-9,10,11,12-tetrahydro-8H-[1,4]diazepino[5′,6′:4,5]thieno[3,2-f]quinolin-3-yl)pyrimidin-2-yl)piperidin-1-yl)ethyl)piperazin-1-yl)phenyl)piperidine-2,6-dione]
< 150	C[C@@H]1CNc2c(sc3ccc4nc(-c5ccc(C6CCN(CCN7CCN(c8ccc(C9CCC(=O)NC9=O)cc8)CC7)CC6)nn5)ccc4c23)C(=O)N1 (stereo partly drawn) [Ex 37, 3-(4-(4-(2-(4-(6-((R)-10-Methyl-8-oxo-9,10,11,12-tetrahydro-8H-[1,4]diazepino[5′,6′:4,5]thieno[3,2-f]quinolin-3-yl)pyridazin-3-yl)piperidin-1-yl)ethyl)piperazin-1-yl)phenyl)piperidine-2,6-dione]
151 to 500	C[C@@H]1CNc2c(sc3ccc4nc(-c5ccc(N6CCC(CN7CCN(c8ccc(C9CCC(=O)NC9=O)cc8)CC7)CC6)cc5)ccc4c23)C(=O)N1 (stereo partly drawn) [Ex 38, 3-(4-(4-((1-(4-((R)-10-Methyl-8-oxo-9,10,11,12-tetrahydro-8H-[1,4]diazepino[5′,6′:4,5]thieno[3,2-f]quinolin-3-yl)phenyl)piperidin-4-yl)methyl)piperazin-1-yl)phenyl)piperidine-2,6-dione]
151 to 500	C[C@@H]1CNc2c(sc3ccc4nc(-c5ccc(N6CCC(CCN7CCN(c8ccc(C9CCC(=O)NC9=O)cc8)CC7)CC6)cc5)ccc4c23)C(=O)N1 (stereo partly drawn) [Ex 39, 3-(4-(4-(2-(1-(4-((R)-10-methyl-8-oxo-9,10,11,12-tetrahydro-8H-[1,4]diazepino[5′,6′:4,5]thieno[3,2-f]quinolin-3-yl)phenyl)piperidin-4-yl)ethyl)piperazin-1-yl)phenyl)piperidine-2,6-dione]
151 to 500	C[C@@H]1CNc2c(sc3ccc4nc(-c5ccc(N6CCC(CCN7CCC(c8ccc(C9CCC(=O)NC9=O)cc8)CC7)CC6)cc5)ccc4c23)C(=O)N1 (stereo partly drawn) [Ex 40, 3-(4-(1-(2-(1-(4-((R)-10-Methyl-8-oxo-9,10,11,12-tetrahydro-8H-[1,4]diazepino[5′,6′:4,5]thieno[3,2-f]quinolin-3-yl)phenyl)piperidin-4-yl)ethyl)piperidin-4-yl)phenyl)piperidine-2,6-dione]
